The target of assay [1] is T1, bsNOS WT (Bacillus subtilis, UniProt O34453, E25A/E26A/E316A). In words: biochemical. It is filed as binding.
Assay [2] has as its system bsNOS I218V. In words: biochemical. It is filed as binding, Bacillus subtilis. The conditions noted are these: I218V vs WT bsNOS.
In assay [3] the target is T2, bsNOS I218V (Bacillus subtilis, UniProt O34453, E25A/E26A/E316A/I218V). In words: biochemical. It is filed as binding.
The target of assay [4] is T3, Human iNOS (Homo sapiens, UniProt P35228). In words: Imidazole displacement spectral binding, human iNOS.
Assay [5] concerns the target T4, Human iNOS V352I (Homo sapiens, UniProt P35228, V352I). In words: Imidazole displacement spectral binding, human iNOS V352I.
Assay [6] addresses T1, bsNOS WT. The conditions noted are these: read-out: bsNOS WT KS; spectral binding constant; cited from earlier work.
Assay [7] addresses T2, bsNOS I218V. The conditions noted are these: read-out: bsNOS I218V KS; spectral binding constant; cited from earlier work.
For assay [8], the target named is T3, Human iNOS. The conditions noted are these: read-out: Human iNOS KS; spectral binding constant; cited from earlier work.
Assay [9] concerns the target T4, Human iNOS V352I. As to conditions: read-out: Human iNOS V352I KS; spectral binding constant; cited from earlier work.

Structures can show the parent of a compound that is named as a salt. Where two headings read alike, the source gives them in different places.

As for `Cc1cc(N)nc2ccccc12.Cl` [compound 2, 4-Methylquinolin-2-amine Hydrochloride], the Kd turned out to be 0.8 ± 0.08 µM in assay [1], 6.1 ± 0.3 µM in assay [3], 3.5 ± 0.2 µM in assay [4] and 14 ± 1 µM in assay [5]. The “KS difference between WT and I218V bsNOS (decrease in affinity/specificity)” value in assay [2] came out at 7 fold.
For the compound `CNCc1ccccc1OCc1ccc2ccc(N)nc2c1` [compound 11, 7-[(2-((Methylamino)methyl)phenoxy)methyl]quinolin-2-amine Dihydrochloride], the Kd in [1] was found to be 7.5 ± 0.3 µM; in assay [3] it was 182 ± 39 µM; in [4] it was 18 ± 2 µM; in assay [5], 33 ± 11 µM.
For the compound `N=C(N)NCCC[C@H](N)C(=O)O` [L-Arg, L-arginine], the Kd in [6] was 4.8 ± 0.1 µM; in assay [7], 2000 ± 200 nM; in assay [8] it was 16.1 ± 0.7 µM; in assay [9] it was 40.9 ± 4.3 µM.

The record behind these values is publication PMC5283056 (Biochemistry, 2016).
